Source: a compilation of properties of binary mixtures (doi:10.1016/j.jtice.2014.04.012)

Test: xn = mol fraction of the nth substance listed
Settings: 100 kPa

CN(C)C=O + CCCC[n+]1ccn(C)c1.F[B-](F)(F)F
x2 = 0
Settings | viscosity [mPa·s]
303.15 K | 0.77
313.15 K | 0.688
323.15 K | 0.619

CCCC[n+]1ccn(C)c1.F[B-](F)(F)F + CN(C)C=O
viscosity [mPa·s]
Settings | x1 = 0.1008 | x1 = 0.2015 | x1 = 0.3022 | x1 = 0.4024 | x1 = 0.502 | x1 = 0.6024 | x1 = 0.7019 | x1 = 0.8015 | x1 = 0.9002 | x1 = 1
303.15 K | – | 2.598 | 4.414 | 7.178 | 11.55 | 17.99 | 26.92 | 39.91 | 58.87 | 85.4
313.15 K | 1.298 | 2.198 | 3.585 | 5.632 | 8.76 | 13.13 | 19.05 | – | 38.08 | –
323.15 K | 1.142 | 1.892 | – | 4.587 | 6.849 | 10 | – | 19.37 | 26.77 | 36.27
333.15 K | 1.012 | 1.631 | 2.53 | 3.873 | 5.565 | 7.857 | – | 14.43 | 19.11 | 25.46
